These results are taken from patent US20070082018A1, “Stabilized antimicrobial compositions and related methods of preparation” (priority 2005, published 2007).

Series [1] in a line: Effect of salts on stability of surfactant solutions, visual observation of precipitation. The following applies: aqueous solutions, 5 wt % LAE. The class given is physicochemical. As for the experimental part: Several experiments were conducted to examine the influence of salts on the stability of solutions containing Mirenat. The pH was not controlled here, as the buffer could mask the real behavior of the system. Still, it remained almost unchanged after the addition of salts. The added counterion (anion) contributed by the added electrolyte is assumed to be the same species as that contributed by the cationic surfactant, i.e. chloride ions Cl^−. Therefore, chloride salts, i.e. sodium chloride NaCl and calcium chloride CaCl2, were used. […] Precipitation occurred slowly, especially with low salt concentration where it could take up to 5 days. […] Almost every time precipitation took place, little or even no turbidity was noticeable. The results provided in Table 1 reflect qualitative visual observation.
Materials and Solution Preparation. Concentrated Mirenat®-N solution (25% lauric arginate, 75% PEG) was obtained from A&B Ingredients and used without further purification. Polyoxyethylene 20 sorbitan monolaureate (Tween 20), solvents (HCl, NaOH, purity >99%) and NaCl (>99%) was obtained from Sigma Chemical (St. Louis, Mo.). All solutions were prepared using doubles distilled and deionized water. Micellar solutions were prepared by gently mixing surfactants (Tween and LAE) at appropriate concentrations with double distilled water. As needed, pH was adjusted using HCl and NaOH.

Series [2] is described as follows: Critical micelle concentration from surface tension (drop shape tensiometry). The class given is physicochemical. The conditions noted are these: for Critical micelle concentration (CMC): pure systems in water. The procedure:
The critical micelle concentration of the pure systems was determined by plotting surface tension values against the logarithm of the total surfactant concentration. In order to determine the values of the critical micelle concentration, two linear fits were used. The first line was fitted to interval of concentration characterized by linear decrease of the surface tension and the second one to the region of concentration with the nearly constant surface tension. The point in which the fitted lines cross corresponds to the value of the critical micelle concentration (CMC). Here, the CMC is reached at a Mirenat concentration 0.25% v/v. This corresponds to 1.65 mmol.L^−1 of lauric arginate, 4 times lower than the literature value. Accordingly, all experiments will be carried out at a concentration largely exceeding the found value: 5% v/v.
Measurement of Surface Tension. A drop shape analysis tensiometer (Model DSA-G10 MK2, Kruss USA, Charlotte, N.C.) was used to determine surface tension of surfactant solutions (20.0±0.5° C.). The tensiometer determines the shape of pendant drops or bubbles through numerical analysis of the entire drop shape. The calculation of the interfacial tension from the drop shape is based on the Young-Laplace equation of capillarity and a detailed description can be found elsewhere (Dukhin, Kretschmer et al. 1995). Surface tension measurements were carried out at 20.0±0.5 ° C. To ensure accurate temperature control, an air bubble was formed at the inverted tip of a syringe that was submerged in the surfactant solution contained in a thermostatted cuvette. The syringe/cuvette system was positioned on an optical bench between the light source and a high-speed CCD camera. […] Samples were assumed to be equilibrated (the equilibrium dynamic interfacial tension DITeq) when measured values of DITeq remained unchanged for 30 minutes. […] Solution were equilibrated to 20° C. in a waterbath and density measured using a digital density meter (DMA 35N, Anton Paar GmbH, Graz, Austria). […]

Series [3] is described as follows: Solution turbidity (absorbance at 600 nm) and precipitation versus pH on NaOH titration. The class given is physicochemical. The conditions noted are these: aqueous solutions, 5 wt % LAE, pH 2-13. As for the experimental part:
The solution pH was increased stepwise by adding 0.5N NaOH and was recorded 2 min following each addition. It was plotted against the total amount of OH added for each of the solutions. Three minutes following each addition, a sub-sample was delivered via pipette into a cuvette for light absorption determination. […] However, this drastic change doesn't occur at the same hydroxide ions concentration for each of the different T20 concentrations. Indeed, it progressively shifts to the right of the graphic. Notice that beginning pH values are very close to each other for each solution. To the contrary, final pH values corresponding to the addition of 11 mmol OH^− are not the same and tend to decrease while the amount of T20 becomes higher. […]
pH would be expected to have an effect on precipitation as it affects the concentration of background ions H^+ and OH^− in the medium. […] It has been assumed that the initial rate of change in absorbance in the dispersions is a qualitative measure of the precipitation rate. […]
Solution Turbidity. Absorbance of solutions adjusted to pH or containing salts was measured by spectroscopy at a wavelength of 600 nm using a UV-Visible spectrophotometer (Spectronic 21D, Milton Roy, Rochester, N.Y.). […] The change in the of absorbance of solutions was used as an indirect measure to formation of larger particles an/or aggregates.

Series [4] deals with Escherichia coli. The conditions noted are these: cited from earlier work.
Series [5] concerns Listeria monocytogenes. The following applies: cited from earlier work.

Some results are limits rather than exact numbers.

Take `CCCCCCCCCCCC(=O)N[C@@H](CCCNC(=N)N)C(=O)OCC.Cl` [LAE, ethyl-N^alpha-dodecanoyl-L-arginate hydrochloride]: in series [1], the “CaCl2 concentration at which precipitates form” value is above 15 g/L and the “NaCl concentration at which precipitates form” value is recorded as above 10 g/L. The “Critical micelle concentration (CMC) as lauric arginate” value in series [2] (corresponds to Mirenat 0.25% v/v) was 1.65 mmol/L. Moreover, the “Critical micelle concentration (CMC)” value in series [2] was determined as 0.25 % v/v. Besides, the “pH at which precipitates form” value in series [3] was above 4.1. Also, the Minimum inhibitory concentration entry in series [4] is on record as “less than 10 ppm”. The Minimum inhibitory concentration result in series [5] was “less than 10 ppm”.
As for “Polyoxyethylene 20 sorbitan monolaureate [T20]”, the “Critical micelle concentration (CMC)” value in series [2] turned out to be 0.3 % v/v.
